In PMC6804997 (PLoS ONE, 2019):

How the values were obtained:
[1] = system: liver, kidney, spleen, heart and lung tissues of mice; test: Histological examination of organs from normal mice given F7; type: in vivo; conditions: oral F7 40 mg/kg/d for 3 days, without glycerol injection
Method: We firstly examined whether the mice model of glycerol-induced AKI was successfully established, and tested the protective effect of F7 at a dose of 40 mg/kg/d for 3 days on renal function and pathological changes. […] We also evaluated the liver, kidney, spleen, heart and lung tissues of mice with oral administration of F7 at the same dose as that in F7+glycerol group for 3 days, but without glycerol injections.
Supplementary file pone.0224158.s002.tif: S2 Fig Histological examinations of different organs from the normal mice administrated with F7. Photomicrographs (×200) illustrated H&E staining of the heart, liver, spleen, lung and kidney tissues from mice with oral administration of F7 at a dose of 40 mg/kg/d for 3 days but without glycerol injection. (TIF) Click here for additional data file.

HK-2 cells = test: Annexin V/PI flow cytometry of myoglobin-stimulated HK-2 cells; type: cell-based, Human; conditions: F7 […], 5 nM and 10 nM; Mb 200 μM, 24 hrs
Method: Human renal proximal tubule cell line (HK-2) cells were purchased from Shanghai Institute of Biochemistry and Cell Biology, Shanghai, China and maintained in DMEM/F12 (Hyclone, Beijing, China) supplemented with 10% fetal bovine serum (FBS, Hyclone, Australia) and 1% penicillin and streptomycin at 37°C under humidified atmosphere of 5% carbon dioxide. Then cells were seeded on six-well plates (Shanghai Sunub Bio-Tech Development Inc., Shanghai, China) at a density of 200,000 cells per well, divided into four groups at exponential phase: the control group (cells incubated with DMEM/F12+10%FBS), the model group (cells incubated with 200 μM ferrous myoglobin (M0630, Sigma-Aldrich, St. […]
Cell apoptosis was evaluated by flow cytometry using an Annexin V-FITC apoptosis analysis kit (AO-2001-02P-H, Tianjin Sungene Biotech Co., Ltd, Tianjin, China). After the four group of cells were cultured under the condition as described above for 24 hours, they were digested by trypsin, collected, and washed three times with PBS diluted 1×binding buffer (1ml per tube). […] After being supplemented to 500 μL using cold PBS followed by gentle vortex, samples were ready to be testes. Apoptosis signals were detected using a CytoFLEX by Beckman & Coulter.

HDAC6 = biological target: T1, HDAC6 (Homo sapiens, UniProt Q9UBN7); test: HDAC enzyme inhibition assay (Ac-peptide-AMC substrate); type: biochemical
T1 sequence (Q9UBN7 1-1215): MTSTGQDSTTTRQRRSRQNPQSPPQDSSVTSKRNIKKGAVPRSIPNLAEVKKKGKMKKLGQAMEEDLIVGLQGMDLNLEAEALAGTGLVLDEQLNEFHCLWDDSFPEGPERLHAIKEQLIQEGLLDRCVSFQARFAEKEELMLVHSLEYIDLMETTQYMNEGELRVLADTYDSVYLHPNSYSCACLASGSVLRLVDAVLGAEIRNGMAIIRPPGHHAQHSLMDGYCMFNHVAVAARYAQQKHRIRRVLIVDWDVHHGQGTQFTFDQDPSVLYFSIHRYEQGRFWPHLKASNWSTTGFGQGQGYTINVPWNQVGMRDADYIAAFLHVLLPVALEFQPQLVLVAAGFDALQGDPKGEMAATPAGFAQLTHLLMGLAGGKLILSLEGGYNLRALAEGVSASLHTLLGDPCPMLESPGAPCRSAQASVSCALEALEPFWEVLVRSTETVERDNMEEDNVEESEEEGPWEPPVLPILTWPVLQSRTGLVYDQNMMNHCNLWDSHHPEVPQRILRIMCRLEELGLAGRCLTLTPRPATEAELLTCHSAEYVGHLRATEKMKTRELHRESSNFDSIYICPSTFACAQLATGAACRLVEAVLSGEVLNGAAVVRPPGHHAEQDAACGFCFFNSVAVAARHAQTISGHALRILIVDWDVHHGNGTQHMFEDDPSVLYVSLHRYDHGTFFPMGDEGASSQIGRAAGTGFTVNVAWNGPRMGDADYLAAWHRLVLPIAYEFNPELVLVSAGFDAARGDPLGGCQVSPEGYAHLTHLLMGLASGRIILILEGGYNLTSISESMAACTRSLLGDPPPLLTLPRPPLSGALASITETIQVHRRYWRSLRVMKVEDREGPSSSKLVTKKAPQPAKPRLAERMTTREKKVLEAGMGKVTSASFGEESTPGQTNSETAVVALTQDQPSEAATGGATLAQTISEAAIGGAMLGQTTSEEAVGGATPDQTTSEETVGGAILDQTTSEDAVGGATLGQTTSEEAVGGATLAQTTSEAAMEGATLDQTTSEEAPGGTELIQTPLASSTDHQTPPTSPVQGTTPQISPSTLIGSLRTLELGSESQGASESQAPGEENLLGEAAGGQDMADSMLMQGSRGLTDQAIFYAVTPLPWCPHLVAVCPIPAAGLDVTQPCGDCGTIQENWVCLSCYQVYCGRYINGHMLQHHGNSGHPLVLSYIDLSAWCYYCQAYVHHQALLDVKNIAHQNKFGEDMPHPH
Method: (§1) HDACs inhibition assay of F7 was performed utilizing 4-amino-7-methylcoumarin (AMC) labeled Ac-peptide (Ac-peptide-AMC) substrates, a service provided by Chempartner Company (Shanghai, China).
(§2) This assay was performed was performed utilizing 4-amino-7-methylcoumarin (AMC) labeled Ac-peptide (Ac-peptide-AMC) substrates, a service provided by Chempartner Company (Shanghai, China).

HDAC4 = HDAC4 (Homo sapiens, UniProt P56524); test: as above; type: biochemical
Chain of HDAC4 (P56524 whole entry, species assumed): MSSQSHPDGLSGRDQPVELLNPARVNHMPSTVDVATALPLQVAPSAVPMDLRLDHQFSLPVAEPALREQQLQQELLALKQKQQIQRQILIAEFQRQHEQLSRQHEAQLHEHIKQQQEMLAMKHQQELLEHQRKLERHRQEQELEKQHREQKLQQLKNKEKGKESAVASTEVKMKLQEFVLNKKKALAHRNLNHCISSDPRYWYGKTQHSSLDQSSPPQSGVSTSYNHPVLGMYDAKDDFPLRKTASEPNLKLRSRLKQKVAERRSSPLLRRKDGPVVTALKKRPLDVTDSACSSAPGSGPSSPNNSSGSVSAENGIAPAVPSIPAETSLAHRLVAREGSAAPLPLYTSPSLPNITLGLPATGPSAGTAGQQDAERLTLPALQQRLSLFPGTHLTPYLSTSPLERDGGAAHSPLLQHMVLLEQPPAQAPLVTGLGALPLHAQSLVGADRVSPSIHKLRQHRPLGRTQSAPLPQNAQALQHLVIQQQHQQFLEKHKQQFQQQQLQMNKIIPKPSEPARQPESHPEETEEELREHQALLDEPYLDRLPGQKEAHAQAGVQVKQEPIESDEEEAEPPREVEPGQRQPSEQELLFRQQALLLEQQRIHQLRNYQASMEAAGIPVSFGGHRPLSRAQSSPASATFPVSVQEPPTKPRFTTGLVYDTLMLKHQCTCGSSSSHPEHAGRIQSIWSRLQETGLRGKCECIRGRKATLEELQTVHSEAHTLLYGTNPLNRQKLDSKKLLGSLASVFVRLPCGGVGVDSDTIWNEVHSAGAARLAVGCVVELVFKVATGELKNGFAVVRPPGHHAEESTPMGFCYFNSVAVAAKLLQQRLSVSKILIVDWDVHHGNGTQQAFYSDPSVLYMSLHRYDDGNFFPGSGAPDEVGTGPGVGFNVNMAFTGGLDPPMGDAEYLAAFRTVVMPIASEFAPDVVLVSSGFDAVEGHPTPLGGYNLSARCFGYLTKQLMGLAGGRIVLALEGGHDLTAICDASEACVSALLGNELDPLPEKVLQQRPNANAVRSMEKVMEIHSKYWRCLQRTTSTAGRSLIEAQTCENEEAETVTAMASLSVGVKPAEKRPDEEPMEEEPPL
Method: as §1, §2

HDAC5 = HDAC5 (Homo sapiens, UniProt Q9UQL6); test: as above; type: biochemical
Chain of HDAC5 (Q9UQL6 whole entry, species assumed): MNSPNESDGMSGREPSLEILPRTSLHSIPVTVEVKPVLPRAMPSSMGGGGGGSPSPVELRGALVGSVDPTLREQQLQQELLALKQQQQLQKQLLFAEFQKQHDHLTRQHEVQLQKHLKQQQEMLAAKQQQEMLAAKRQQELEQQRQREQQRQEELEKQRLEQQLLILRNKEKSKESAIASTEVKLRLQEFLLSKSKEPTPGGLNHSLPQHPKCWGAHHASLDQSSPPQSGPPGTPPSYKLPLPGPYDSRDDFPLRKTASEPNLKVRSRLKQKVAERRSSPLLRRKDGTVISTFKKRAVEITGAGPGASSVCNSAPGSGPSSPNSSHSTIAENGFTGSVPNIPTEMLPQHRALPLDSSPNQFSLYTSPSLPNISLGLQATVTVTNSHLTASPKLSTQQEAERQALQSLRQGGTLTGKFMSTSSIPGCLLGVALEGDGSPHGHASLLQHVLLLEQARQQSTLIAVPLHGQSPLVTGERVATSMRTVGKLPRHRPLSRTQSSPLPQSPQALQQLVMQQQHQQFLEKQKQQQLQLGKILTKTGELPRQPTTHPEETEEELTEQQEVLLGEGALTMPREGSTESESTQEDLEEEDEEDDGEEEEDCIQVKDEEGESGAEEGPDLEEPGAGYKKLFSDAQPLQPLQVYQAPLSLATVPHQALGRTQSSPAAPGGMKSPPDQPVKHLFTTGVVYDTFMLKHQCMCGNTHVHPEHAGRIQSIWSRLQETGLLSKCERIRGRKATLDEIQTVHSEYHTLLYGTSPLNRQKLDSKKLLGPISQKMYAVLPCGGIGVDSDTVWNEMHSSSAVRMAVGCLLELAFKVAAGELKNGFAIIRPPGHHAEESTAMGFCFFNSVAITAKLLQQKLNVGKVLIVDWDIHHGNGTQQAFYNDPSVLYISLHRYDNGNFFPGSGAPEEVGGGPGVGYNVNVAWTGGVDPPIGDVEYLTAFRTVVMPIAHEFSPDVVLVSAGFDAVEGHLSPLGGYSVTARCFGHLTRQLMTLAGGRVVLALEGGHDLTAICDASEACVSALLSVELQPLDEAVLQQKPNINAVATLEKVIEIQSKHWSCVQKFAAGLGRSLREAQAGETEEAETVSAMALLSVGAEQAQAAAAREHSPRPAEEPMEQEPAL
Method: as §1, §2

HDAC6 inhibition efficacy of F7 compared with 23BB (HDAC6): three times higher
IC50 (HDAC6): 0.0058 µM
selectivity of HDAC6 versus other HDACs (HDAC6): 110-1724 times
IC50 (HDAC4): > 10 µM
IC50 (HDAC5): > 10 µM
Structure (SMILES): Cc1nc(N(C)c2ccc(Oc3ccc(C(=O)NO)cn3)cc2)c2ccccc2n1 [F7, N-hydroxy-6-(4-(methyl(2-methylquinazolin-4-yl)amino)phenoxy)nicotinamide]
organ damage (histological sections of liver, kidney, spleen, heart and lung) [1]: did not exhibited organ damage
growth of HK-2 cells under stimulation of myoglobin (HK-2 cells): improved growth of HK-2 cells under stimulation of myoglobin (Mb) in a dose-dependent manner
